Reference: PubChem BioAssay (NCI)
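Assay format: 96-well plates, 48-hour exposure. At the TGI there is no net growth.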

Experiments:
Assay in all cases: growth of human tumour cells (NCI), 48 h
ACHN renal = system: ACHN renal
CAKI-1 renal = system: CAKI-1 renal
HCT-15 colon = system: HCT-15 colon
MCF7 breast = system: MCF7 breast
MDA-MB-231 breast = system: MDA-MB-231 breast
MDA-N = system: MDA-N
RPMI-8226 leukemia = system: RPMI-8226 leukemia
SN12C renal = system: SN12C renal
SNB-19 CNS = system: SNB-19 CNS
DLD-1 colon = system: DLD-1 colon
DMS 273 small cell lung = system: DMS 273 small cell lung

| SMILES | TGI (ACHN renal) | TGI (CAKI-1 renal) | TGI (HCT-15 colon) | TGI (MCF7 breast) | TGI (MDA-MB-231 breast) | TGI (MDA-N) | TGI (RPMI-8226 leukemia) | TGI (SN12C renal) | TGI (SNB-19 CNS) | TGI (DLD-1 colon) | TGI (DMS 273 small cell lung) |
| --- | --- | --- | --- | --- | --- | --- | --- | --- | --- | --- | --- |
| CCOC(=O)[C@@H]1ON2O[C@@H](OC3CCCC3(c3ccccc3)c3ccccc3)C[C@H]3OC(=O)[C@@H]1C32 (stereo partly specified) | 37 µM | 31.6 µM | 60.7 µM | 52.1 µM | 49 µM | 67.6 µM | 90.6 µM | 80.3 µM |  |  |  |
| O=C(CCc1cccc(O)c1)NCCCNC(=O)CCc1cccc(O)c1 | > 100 µM | > 100 µM | > 100 µM | > 100 µM | > 100 µM | > 100 µM | > 100 µM | > 100 µM | > 100 µM |  |  |
| N#CCCN(CCC#N)c1ccc(/C=C2\SC(=S)NC2=O)cc1Br | > 100 µM | > 100 µM | > 100 µM | > 100 µM | 79.6 µM | > 100 µM | > 100 µM | > 100 µM | 56.3 µM |  |  |
| O=C1c2cccc(NCCNCCO)c2C(=O)c2cccc(NCCNCCO)c21 | 8.16 µM | 4.56 µM | 19 µM | 10.3 µM |  | 1.55 µM | > 32.3 µM | 5.82 µM | 5.53 µM | 12.6 µM | 7.19 µM |
| C[C@]1(S(=O)(=O)c2ccccc2)C[C@H]2N(Cc3ccccc3)[C@@H]1CCC21OCCO1 | > 100 µM | > 100 µM | > 100 µM | > 100 µM | > 100 µM | > 100 µM |  | > 100 µM | > 100 µM |  |  |
| Cc1cc(/N=C/c2ccc(C#N)cc2)n(-c2ccccc2)n1 | > 100 µM | > 100 µM | > 100 µM | > 100 µM | > 100 µM | > 100 µM | > 100 µM | > 100 µM | > 100 µM |  |  |
| CC(C)(C)C(=O)C(Cc1ccccc1)C(=O)C(C)(C)C | > 100 µM | > 100 µM | > 100 µM | > 100 µM | > 100 µM | > 100 µM | > 100 µM | > 100 µM | > 100 µM |  |  |
| CCCCC#CS(=O)(=O)C(F)(F)F |  | > 100 µM | > 100 µM | > 100 µM |  |  | > 100 µM | > 100 µM | > 100 µM | > 100 µM | > 100 µM |
| Cc1cn2c(C)csc2c1P(=O)(OC(C)C)OC(C)C | > 100 µM | > 100 µM | > 100 µM | > 100 µM | > 100 µM | > 100 µM | > 100 µM | > 100 µM | > 100 µM |  |  |
| N#CC(=N)c1ncn(-c2ccccc2N)c1N | > 100 µM | > 100 µM | > 100 µM | > 100 µM | > 100 µM | > 100 µM | > 100 µM | > 100 µM | > 100 µM |  |  |
| OCC(O)C(O)C(O)/C=N/Nc1nc(O)c(/C=C2\C=Nc3ccccc32)[nH]1 (stereo unspecified) | > 100 µM | > 100 µM | > 100 µM | > 100 µM | > 100 µM | > 100 µM | > 100 µM | > 100 µM | > 100 µM |  |  |
| O=C1CC(Sc2nc3ccc(I)cc3c(=O)n2Cc2ccccc2)C(=O)NN1 (stereo unspecified) | 30.2 µM | 11.2 µM | 28.8 µM | 28.2 µM | 29.3 µM | 33.4 µM | 45.5 µM | 27.6 µM | 39.1 µM |  |  |
| NS(=O)(=O)c1ccc(NC(NC(=O)C(C(F)(F)F)C(F)(F)F)(C(F)(F)F)C(F)(F)F)cc1 | > 100 µM | > 100 µM | > 100 µM | > 100 µM | > 100 µM | > 100 µM | > 100 µM | > 100 µM | > 100 µM |  |  |
| COc1cc2c(cc1OC)C13CC[N+]4(C)CC5=CCOC6CC(=O)N2C1C6C5CC34[O-] (stereo unspecified) | > 100 µM | > 100 µM | > 100 µM | > 100 µM | > 100 µM | > 100 µM | > 100 µM | > 100 µM | > 100 µM |  |  |
| CCCOC(=O)NC(C)C(=O)NC(CCC(=O)NC(CCCC(N)C(=O)O)C(=O)NC(C)C(=O)O)C(=O)O (stereo unspecified) | > 100 µM | 40.7 µM | 34.6 µM | > 100 µM | 50.8 µM | 44.6 µM | 32.2 µM | > 100 µM | 71 µM |  |  |
| COC(=O)C1OC(O[C@H]2CC[C@]3(C)[C@H]4CC=C5[C@@H]6CC(C)(C)CC[C@]6(C(=O)OC6OCC(O)C(O)C6OC6OC(C)C(OC7OCC(OC8OCC(O)C(O)C8O)C(O)C7O)C(O)C6O)[C@H](O)C[C@@]5(C)[C@]4(C)CC[C@H]3C2(C)C)C(O)C(O)C1O (stereo partly specified) | 11.9 µM | 11.7 µM | 22.7 µM | 6.63 µM | 9.33 µM | 3.44 µM | > 50.7 µM | 3.36 µM | 8.09 µM |  |  |
| O=c1n(Cc2ccccc2)c(=O)n2c(=O)n(Cc3ccccc3)c(=O)n12 | > 100 µM | > 100 µM | > 100 µM | > 100 µM | > 100 µM | > 100 µM | > 100 µM | > 100 µM | > 100 µM |  |  |
| CCOC(=O)C1(C(=O)OCC)CCCN1C(=O)[C@H](CNC(=O)OC(C)(C)C)NC(=O)OCc1ccccc1 | > 100 µM | > 100 µM | > 100 µM | > 100 µM | > 100 µM | > 100 µM | > 100 µM | > 100 µM | > 100 µM |  |  |
| COc1cc(C=C2C(=O)NC(=S)NC2=O)cc(OC)c1OC | > 100 µM | > 100 µM | > 100 µM | > 100 µM | > 100 µM | > 100 µM | > 100 µM | > 100 µM | > 100 µM |  |  |
| Cc1ccc(S(=O)(=O)NC(=O)NNc2ccc(F)cc2)cc1 | > 100 µM | > 100 µM | > 100 µM | > 100 µM | > 100 µM | > 100 µM | > 58.2 µM | > 100 µM | > 100 µM |  |  |
| COP(=O)(OC)C12CCOCCN1c1ccccc1C2=O (stereo unspecified) | > 100 µM | > 100 µM | > 100 µM | > 100 µM | > 100 µM | > 100 µM | > 100 µM | > 100 µM | > 100 µM |  |  |
| C=C1C(=O)OC2/C=C(/C)C3(O)OC(C)(CC(OC(=O)C(C)C)C12)CC3OC(C)=O (stereo unspecified) | 8.67 µM | 7.18 µM | 24.5 µM | 26.3 µM | > 42.6 µM | 4.94 µM | > 100 µM | 17.5 µM | 36.6 µM |  |  |
